In a melting point compilation (Tetko et al.; mined from patent text by program, amines drawn as free bases though some values may be those of a salt) one finds melting point data, which are given here for 86 compounds.

Usually melting point stands for the temperature of the solid-liquid transition. In turn, `CC(CF)(CF)C(O)C(Oc1cccc(C(F)(F)F)c1)n1ccnc1` (stereo unspecified) registered a melting point of 107 to 120 °C.

The compound `CN(CCCNC1=CC(=O)c2sc(C(=O)N3CCOCC3)nc2C1=O)CCCNC1=CC(=O)c2sc(C(=O)N3CCOCC3)nc2C1=O` showed a melting point of 207 to 208 °C. Consider `COC(=O)c1ccc(Cn2nc(Br)c3ccc(C(=O)NCC4CCCC4)cc32)c(OC)c1`, for which the melting point is 161 to 162 °C. Under `COc1cc(CCCOS(C)(=O)=O)ccc1OCc1coc(/C=C/c2ccccc2)n1` stands 130 to 131 °C; under `CN(C)c1cc(NC(=O)c2ccccc2-c2ccc(C(F)(F)F)cc2)cnc1OCCCC1(C(=O)NCC(F)(F)F)c2ccccc2-c2ccccc21`, 140 to 141 °C; under `CC1(C)COC(c2ccc(F)cc2-c2ccc3c(c2)CCC(Cc2ccccc2)C3O)=N1` (stereo unspecified), 88 to 89 °C. Under `CC(C)COC(=O)Sc1ccc(-c2ccc(C(CCl)NC(=O)c3c(F)cccc3F)cc2)cc1` (racemic) stands 171 to 173 °C. Turning to `CCCCc1oc2ccccc2c1C(=O)NCc1ccc2c(-c3ccccc3)c(O)ccc2c1`, the melting point came to 72 °C. `Cc1cc(-n2ccnc2)c2cccc(OCc3c(Cl)ccc(S(=O)(=O)N4CCC[C@H]4C(=O)NC4CC4)c3Cl)c2n1` registered a melting point of 108 °C. On to `CSc1nn(-c2c(Cl)cc(Cl)cc2Cl)c(N(C)C)c1CC1C(=O)NC(=O)c2ccccc21` (stereo unspecified), for which the melting point was in the range of 186 to 187 °C. As to `COc1nc(Cl)c(C(C)C)c(OC)n1`, the melting point lay in the range of 23 to 24 °C. The compound `CN(CCOc1ccc(N)cc1)c1ccncc1` gave a melting point of 141 to 142 °C. Turning to `CCCS(=O)(=O)c1cc(C(=O)NCC2CCCN2CC)c(OC)cc1N` (stereo unspecified), the melting point fell in the range of 105 to 106 °C.

Compound `Cc1ncc2ccc(-c3cccs3)nc2n1` registered a melting point of 175 to 180 °C. Under `CCCn1c(=O)[nH]c(=S)c2[nH]c(C=Cc3ccccc3)nc21` stands above 290 °C; under `CC(=O)OCc1c(C#N)cnc2c(NC(=O)c3c(Cl)cccc3Cl)cccc12`, 201 to 203 °C. Turning to `CC1(C)COc2cc(O)c(C=O)cc21`, the melting point lay in the range of 100 to 102 °C. `CCOc1ccc(-c2nc(=O)c3ccccc3s2)cn1` came in with a melting point of 152 to 156 °C. In the case of `COC(=O)c1ccc(NC(=O)c2ccc(Br)nc2)nc1`, the melting point was in the range of 173 to 174 °C. `O=C1c2c(OCc3ccccc3)c(OCc3ccccc3)cc(OCc3ccccc3)c2-c2nn(CCNCCO)c3ccc(NCCNCCO)c1c23` came in with a melting point of 186 to 188 °C. For the compound `CC(=O)N1CC(C)C(=O)N(C(C)=O)C1=O` (stereo unspecified), the melting point was 130 to 131 °C. Under `CCCCCCCCOc1ccc(-c2nc(-c3ccccc3)c(-c3ccccc3)n2CCCCCCCC(=O)O)cc1` stands 114 to 115 °C; under `Fc1ccc(C(=C(c2ccccc2)C(F)(F)F)c2ccc(OCCN3CCOCC3)cc2)cc1`, 95 to 96 °C. For `O=CNc1ccnc(C(=O)Nc2ccc(Oc3ccccc3)cc2)c1O`, the melting point came to 208 °C. Turning to `COc1cc(C)c(Cl)cc1C(C)=O`, the melting point is 83 °C.

`Nc1nnn(CC(F)(F)F)n1`: the melting point is 95 to 97 °C. Under `Cc1nc2c(OCc3ccccc3)cc(Br)cn2c1C` stands 151 to 153 °C. Under `CCCCOc1ccc(CNC(=O)c2ccccc2[N+](=O)[O-])cc1` stands 101 to 102 °C. Under `Cc1c(-c2ccncc2)c(-c2ccc(F)cc2)n2c1SCC2` stands 208 °C. `CC(C)[C@H](NC(=O)/C=C/c1cccnc1)C(=O)N[C@@H](Cc1ccccc1)[C@@H](O)[C@H](O)[C@H](Cc1ccccc1)NC(=O)[C@@H](NC(=O)/C=C/c1cccnc1)C(C)C` came in with a melting point of 285 to 289 °C. Under `CC(N)c1ccc2c(c1)N(C(=O)OC(C)(C)C)CCC2` (stereo unspecified) stands 61 to 64 °C; under `COC1(c2cccc(OCc3ccc4ccccc4c3)c2)CC(C)OC(C)C1` (stereo unspecified), 105 to 107 °C; under `N#Cc1cccc(-c2cnco2)n1`, 148 °C. For the compound `O=c1c(NCCCN(Cc2ccc(F)cc2)c2ccccn2)c(NCc2ccncc2)c1=O`, the melting point fell in the range of 198 to 201 °C. The compound `CS(=O)(=O)c1ccc(C(=O)O)c(Cl)c1F` had a melting point of 204 °C. `CC(C)(C)c1ccc(OCC(O)CCCl)cc1` (stereo unspecified) displayed a melting point of 45 to 47 °C. The compound `NC(=O)NN=Cc1ccc(OC2C3CC4CC(C3)CC2C4)cc1` (stereo unspecified) displayed a melting point of 226 to 228 °C. Under `CCC(=O)N1N=C(c2ccc([N+](=O)[O-])cc2)c2cc3c(cc2CC1C)OCO3` (stereo unspecified) stands 189 to 190 °C; under `Cc1ccc(NC(=O)c2ccc(CN(C)C)c(C(F)(F)F)c2)cc1Br`, 169 to 172 °C. Consider `CN1c2ccc(Cl)cc2C(c2ccccc2Cl)=Nc2cccnc21`, for which the melting point lay within 150 to 152 °C.

Compound `CS(=O)(=O)Nc1c(-c2ccccc2)c(=O)[nH]c2cc(Cl)ccc12` returned a melting point of 222 to 224 °C.

Compound `Cc1c(CC(=O)O)c2cc(OCc3ccccc3)ccc2n1Cc1ccc(Cl)cc1` yielded a melting point of 140 to 142 °C. Under `CCOC(=O)c1cc(F)c(SC)nc1NC1CC1` stands 67 to 69 °C. `CN(C)Cc1ccc(CSCCNC2=NS(=O)(=O)N=C2NO)o1`: the melting point lay in the range of 203 to 205 °C. As to `COC(=O)C#CC(=O)c1cccc(OC)c1`, the melting point lay within 32 to 34 °C. Under `CN(C)C(=O)c1nc(-c2ccccc2)nc2c1c1cc(Cl)ccc1n2C` stands 222 to 224 °C. Turning to `O=C(Nc1ccc(N2CCCC2)nc1)c1cc2nc(C(F)(F)F)ccc2n1Cc1cccc(F)c1`, the melting point lay in the range of 219 to 220 °C.

Regarding `CC(C)(C)OC(=O)NNC1CCN(C(=O)OC(C)(C)C)CC1`, the melting point lay in the range of 112 to 115 °C.

Compound `OC(/C=C/c1cc(C(F)(F)F)ccc1Cl)(CF)CF` yielded a melting point of 61 to 62 °C.

In turn, `CC(C)(C)C(=O)Nc1ccc(SSc2ccc(NC(=O)C(C)(C)C)cc2C(N)=O)c(C(N)=O)c1` displayed a melting point of 288 to 289 °C. Compound `O=Cc1ccc(OCc2ccc3ccccc3n2)cc1` gave a melting point of 69 to 72 °C. Turning to `CC(Cl)C(CC(=O)c1ccccc1)[N+](=O)[O-]` (stereo unspecified), the melting point was in the range of 115 to 117 °C. In turn, `CCOC(=O)C(CC)Oc1ccc2c(-c3ccc(Cl)cc3)noc2c1` (stereo unspecified) showed a melting point of 73 °C. With `CCOC(=O)CNc1ccc2ncccc2c1`, the melting point lay in the range of 122 to 123 °C. On to `CC(=O)ON=C(N)c1ccc(C(=O)N2CCN(C(=O)[C@@H]3CCCN3S(=O)(=O)c3ccc(Cl)c(COc4cccc5ncc(C)nc45)c3Cl)CC2)cc1`, for which the melting point fell in the range of 161 to 165 °C.

Turning to `Clc1ccc2c(c1)-c1nnnn1-c1ccccc1O2`, the melting point lay in the range of 209 to 211 °C.

In turn, `COC(=O)c1ccc(/C=C/c2nc(-c3ccco3)oc2C)cc1` had a melting point of 142 to 143 °C.

For `CCOC(=O)C(C)(C)OC(=O)c1cc(-n2c(=O)cc(C(F)(F)F)[nH]c2=O)ccc1Cl`, the melting point was 176 to 177 °C. Take `CC(C)(C)c1ccc(N2CCOCC2)c(NC(=O)C(F)(F)F)c1`: the melting point lay within 89 to 90 °C.

Consider `CN(C)C(=O)Nc1ccc(OCCc2ccccc2)c(N)c1`, for which the melting point is 125 to 126 °C.

`COC(=O)CCCCc1ccc(CN2CCN(c3ccncc3)CC2)cc1`: the melting point was 53 to 54 °C. In the case of `CC(=O)OC1Oc2ccc(OS(C)(=O)=O)cc2C1(C)C` (stereo unspecified), the melting point was 84 to 85 °C. As to `COc1ccc(C2C3=C(COC3=O)Nc3ccc4cc[nH]c4c32)cc1O` (stereo unspecified), the melting point is 297 to 299 °C. Turning to `CCOc1nc2ncnn2c2c1cnc1c2cnn1CC`, the melting point fell in the range of 196 to 197 °C. `CNc1nc(-c2cccc(NC(=O)c3ccc(S(C)=O)cc3)c2)c2cc(OC)c(OC)cc2n1` (stereo unspecified) returned a melting point of 246 to 248 °C.

On to `O=[N+]([O-])C=Cc1c[nH]c2ccc(-c3ccc4[nH]cnc4c3)cc12`, for which the melting point is above 280 °C. Turning to `COc1ccc(N2CCN(c3c(C)c(C(C)O)c4c(c3C)C(c3ccc(C)cc3)C(C)(C)O4)CC2)cc1` (stereo unspecified), the melting point lay in the range of 149 to 151 °C.

In turn, `O=C1CC(=O)C(CCCCCCCO)C1=O` (stereo unspecified) came in with a melting point of 121 to 124 °C. In turn, `CN1CCc2c(Br)sc(Br)c2C(c2ccccc2)C1` (stereo unspecified) gave a melting point of 83 °C. The compound `COc1ccc(-c2nc3nccnc3[nH]2)c(OC)c1` yielded a melting point of 210 to 215 °C. Under `O=C(O)c1ccc(CCCc2ccccc2CCc2ccccc2)cc1` stands 97 to 98 °C; under `CC(C)(c1ccccc1)c1cccc(S(=O)(=O)NC(CCCNC(=N)N)C(=O)N2CCC(CC(=O)O)CC2)c1` (stereo unspecified), 188 to 191 °C; under `CC(=O)N1CCC(c2nc(N)nc3ccccc23)CC1`, 184 to 186 °C. `O=C1CCC2(CCC(=O)c3ccccc32)C(=O)N1` (stereo unspecified) showed a melting point of 197 to 199 °C. Under `Cc1ncc2cc(-c3ccccc3Cl)c(N)nc2n1` stands 259 to 260 °C; under `O=c1c2c(n(-c3ccccc3)c3ncccc13)OCC2`, 245 to 247 °C; under `CCOC(=O)c1c(CS(=O)c2nc3ccccc3[nH]2)nc2cc(OC)c(OC)cc2c1-c1ccc(OC)c(OC)c1` (stereo unspecified), 160 to 161 °C. Compound `O=C(NCCO)c1cccc(-c2ccc3ccn(-c4ccc(Cl)cc4Cl)c3c2)c1` came in with a melting point of 163 to 164 °C.

In turn, `CCc1nnc(C(Cc2ccc(OCCc3nc(-c4ccccc4)oc3C)cc2)c2ccccc2)o1` (stereo unspecified) registered a melting point of 110 °C. On to `O=C(c1cc(Br)c(OCP(=O)(O)O)c(Br)c1)c1c(Cc2ccccc2)sc2ccccc12`, for which the melting point lay within 210 to 212 °C.

`COc1ccc(COc2cncc3c2C(=O)c2c(NCCN(C)C)ccc(Cl)c2C3=O)cc1` showed a melting point of 127 to 128 °C.

For `CCOC(=O)C(=CNc1ccc(F)c(F)c1OCC1CN(Cc2ccccc2)CCN1Cc1ccccc1)C(=O)OCC` (stereo unspecified), the melting point was in the range of 109 to 110 °C.

In turn, `COc1cc(Br)cc2cc(C(C)=O)oc12` came in with a melting point of 107 to 109 °C. As to `C1=C(CCc2ccccc2)CCN(Cc2c[nH]c3ccccc23)C1`, the melting point lay within 138 to 140 °C.

`CCn1c(=O)c2c(nc(/C=C/c3ccc(OC)c(O)c3)n2C)n(CC)c1=O` returned a melting point of 204 to 206 °C. Under `CCOC(=O)c1cc(F)cnc1NCc1ccc(OC)cc1` stands 90 °C.
